Source: ChEMBL document CHEMBL4145482, “Discovery of novel HSP90 inhibitors that induced apoptosis and impaired autophagic flux in A549 lung cancer cells” (Eur J Med Chem, 2018)
Active and inactive are the calls of the source. The calls are words filed in the database; no cut-off is given here.

Legend:
[1] = target: T1, Heat shock protein HSP90 (Homo sapiens) (UniProt P07900+P08238); experiment: Inhibition of anti-HSP90 antibody binding to HSP90 in human A549 cells preincubated for 1 hr followed by antibody addition by Western blot analysis; assay type: cell-based
A549 [2] = experiment: Growth inhibition of human A549 cells after 48 hrs by SRB assay; assay type: functional, cell-based; settings: for IC50: A549, 48 h
A549 [3] = experiment: Induction of necrosis in human A549 cells at 10 to 20 uM after 48 hrs by LDH release assay; assay type: functional, cell-based
A549 [4] = experiment: Induction of apoptosis in human A549 cells assessed as DNA fragmentation at 10 uM after 6 to 24 hrs by Hoechst 33258 staining based fluorescence microscopic method; assay type: functional, cell-based
A549 [5] = experiment: Induction of apoptosis in human A549 cells assessed as chromatin condensation at 10 uM after 6 to 24 hrs by Hoechst 33258 staining based fluorescence microscopic method; assay type: functional, cell-based
A549 [6] = experiment: Inhibition of autophagic flux in human A549 cells assessed as increase in LC3-2 protein level at 10 uM after 24 hrs by Western blot analysis; assay type: functional, cell-based
A549 [7] = experiment: Inhibition of autophagic flux in human A549 cells assessed as increase in p62 protein level at 10 uM after 24 hrs by Western blot analysis; assay type: functional, cell-based
A549 [8] = experiment: Inhibition of autophagic flux in human A549 cells assessed as increase in LC3-2 protein level at 10 uM after 24 hrs in presence of V-ATPase inhibitor bafilomycin-A1 by Western blot analysis; assay type: functional, cell-based
A549 [9] = experiment: Inhibition of autophagic flux in human A549 cells assessed as increase in p62 protein level at 10 uM after 24 hrs in presence of V-ATPase inhibitor bafilomycin-A1 by Western blot analysis; assay type: functional, cell-based
A549 [10] = experiment: Growth inhibition of human A549 cells up to 20 uM up to 48 hrs by SRB assay; assay type: functional, cell-based
[11] = target: T1, Heat shock protein HSP90 (Homo sapiens); experiment: Inhibition of HSP90 in human A549 cells assessed as reduction in AKT protein expression at 10 uM up to 48 hrs by Western blot analysis; assay type: cell-based
[12] = target: T1, Heat shock protein HSP90 (Homo sapiens); experiment: Inhibition of HSP90 in human A549 cells assessed as reduction in NFkB p65 protein expression at 10 uM up to 48 hrs by Western blot analysis; assay type: cell-based
A549 [13] = experiment: Effect on HSP90 protein expression in human A549 cells at 10 uM up to 48 hrs by Western blot analysis; assay type: cell-based; settings: a549, 48 h
A549 [14] = experiment: Upregulation of HSP70 protein expression in human A549 cells at 10 uM up to 48 hrs by Western blot analysis; assay type: cell-based; settings: a549, 48 h
HUVEC = experiment: Cytotoxicity against HUVEC assessed as reduction in cell viability after 48 hrs by SRB assay; assay type: cell-based; settings: human

## COc1ccc(C2CC(c3cc4ccc(O)cc4oc3=O)=NN2c2ccc(Cl)cc2)cc1 (stereo unspecified)
[1]
  inhibition: Dose-dependent effect
A549 [2]
  growth inhibition (GI): Dose-dependent effect
  IC50: 9.6 µM
A549 [3]
  Activity: inactive
A549 [4]
  Activity: Active
A549 [5]
  Activity: Active
A549 [6]
  Activity: Active
A549 [7]
  Activity: Active
A549 [8]
  Activity: inactive
A549 [9]
  Activity: inactive

## O=c1[nH]cc(F)c(=O)[nH]1
A549 [10]
  growth inhibition (GI): inactive

## COc1ccc(C2CC(c3cc4ccc(O)cc4oc3=O)=NN2c2ccc(F)cc2)cc1 (stereo unspecified)
[1]
  inhibition: Dose-dependent effect
A549 [2]
  growth inhibition (GI): Dose-dependent effect
  IC50: 7.1 µM
A549 [3]
  Activity: inactive
A549 [4]
  Activity: Active
A549 [5]
  Activity: Active
A549 [6]
  Activity: Active
A549 [7]
  Activity: Active
A549 [8]
  Activity: inactive
A549 [9]
  Activity: inactive

## COc1ccc(C2CC(c3cc4ccc(O)cc4oc3=O)=NN2c2ccc(Br)cc2)cc1 (stereo unspecified)
[1]
  inhibition: Dose-dependent effect
A549 [2]
  growth inhibition (GI): Dose-dependent effect
  IC50: 6.5 µM
A549 [3]
  Activity: inactive
A549 [4]
  Activity: Active
A549 [5]
  Activity: Active
A549 [6]
  Activity: Active
A549 [7]
  Activity: Active
A549 [8]
  Activity: inactive
A549 [9]
  Activity: inactive

## O=c1oc2cc(O)ccc2cc1C1=NN(c2ccccc2)C(c2ccccc2)C1 (stereo unspecified)
[1]
  inhibition: Dose-dependent effect
[11]
  inhibition: Active
[12]
  inhibition: Active
A549 [13]
  Activity: Non-Toxic
A549 [14]
  Activity: Non-Toxic
A549 [2]
  growth inhibition (GI): Dose-dependent effect
  IC50: 4.7 µM
A549 [3]
  Activity: inactive
HUVEC
  Activity: Non-Toxic
A549 [4]
  Activity: Active
A549 [5]
  Activity: Active
A549 [6]
  Activity: Active
A549 [7]
  Activity: Active
A549 [8]
  Activity: inactive
A549 [9]
  Activity: inactive

## COc1ccc(C2CC(c3cc4ccc(O)cc4oc3=O)=NN2c2ccccc2)cc1 (stereo unspecified)
[1]
  inhibition: Dose-dependent effect
A549 [2]
  growth inhibition (GI): Dose-dependent effect
  IC50: 6.3 µM
A549 [3]
  Activity: inactive
A549 [4]
  Activity: Active
A549 [5]
  Activity: Active
A549 [6]
  Activity: Active
A549 [7]
  Activity: Active
A549 [8]
  Activity: inactive
A549 [9]
  Activity: inactive

## O=c1oc2cc(O)ccc2cc1C1=NN(c2ccc(F)cc2)C(c2ccccc2)C1 (stereo unspecified)
[1]
  inhibition: Dose-dependent effect
A549 [2]
  growth inhibition (GI): Dose-dependent effect
  IC50: 7.2 µM
A549 [3]
  Activity: inactive
A549 [4]
  Activity: Active
A549 [5]
  Activity: Active
A549 [6]
  Activity: Active
A549 [7]
  Activity: Active
A549 [8]
  Activity: inactive
A549 [9]
  Activity: inactive
